The target in assay [1] is PDGFRα (Homo sapiens, UniProt P16234). Nature of the assay: Kinase inhibition. It counts as biochemical.
Assay [2] has as its target PDGFRβ (Homo sapiens, UniProt P09619). The assay is described as follows: Kinase inhibition. It counts as biochemical.
The target of assay [3] is FGFR1 (Homo sapiens, UniProt P11362). Nature of the assay: Kinase inhibition. It counts as biochemical.
Assay [4] deals with FGFR2 (Homo sapiens, UniProt P21802). Nature of the assay: Kinase inhibition. It counts as biochemical.
The target in assay [5] is FGFR3 (Homo sapiens, UniProt P22607). The assay is described as follows: Kinase inhibition. The assay is classed as biochemical.
The target of assay [6] is DDR1 (Homo sapiens, UniProt Q08345). The assay is described as follows: Kinase inhibition. It counts as biochemical.
Assay [7] addresses T1, DDR2 (Homo sapiens, UniProt Q16832).
T1 sequence (Q16832 22-855): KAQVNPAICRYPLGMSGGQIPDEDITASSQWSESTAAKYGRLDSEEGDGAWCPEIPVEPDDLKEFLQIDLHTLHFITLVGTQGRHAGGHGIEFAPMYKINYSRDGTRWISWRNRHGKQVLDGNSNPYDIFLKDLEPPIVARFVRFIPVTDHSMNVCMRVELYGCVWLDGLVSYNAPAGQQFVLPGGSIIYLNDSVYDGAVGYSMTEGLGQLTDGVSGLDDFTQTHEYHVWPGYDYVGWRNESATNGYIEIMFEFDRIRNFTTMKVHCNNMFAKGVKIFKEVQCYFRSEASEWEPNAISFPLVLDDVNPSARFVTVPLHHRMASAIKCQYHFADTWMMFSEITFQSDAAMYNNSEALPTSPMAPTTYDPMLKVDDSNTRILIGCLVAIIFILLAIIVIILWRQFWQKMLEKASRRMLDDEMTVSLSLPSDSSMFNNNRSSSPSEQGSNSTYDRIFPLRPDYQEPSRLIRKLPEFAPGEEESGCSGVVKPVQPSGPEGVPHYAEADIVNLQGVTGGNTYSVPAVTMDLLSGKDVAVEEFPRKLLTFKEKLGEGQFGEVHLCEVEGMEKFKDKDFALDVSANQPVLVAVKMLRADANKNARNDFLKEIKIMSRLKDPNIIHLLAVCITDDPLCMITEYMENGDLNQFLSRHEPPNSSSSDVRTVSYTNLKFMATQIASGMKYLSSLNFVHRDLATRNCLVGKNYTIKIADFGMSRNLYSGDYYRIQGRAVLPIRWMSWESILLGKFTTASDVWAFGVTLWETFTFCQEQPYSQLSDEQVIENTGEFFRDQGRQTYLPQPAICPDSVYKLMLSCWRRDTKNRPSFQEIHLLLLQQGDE
The assay is described as follows: Kinase inhibition. It counts as biochemical.

Assay [8] has as its target JAK1 (Homo sapiens, UniProt P23458). The assay is described as follows: Kinase inhibition. It counts as biochemical.
Assay [9] has as its target JAK2 (Homo sapiens, UniProt O60674). Nature of the assay: Kinase inhibition. The assay is classed as biochemical.
For assay [10], the target named is T2, JAK3 (Homo sapiens, UniProt P52333).
T2 sequence (P52333 1-1124): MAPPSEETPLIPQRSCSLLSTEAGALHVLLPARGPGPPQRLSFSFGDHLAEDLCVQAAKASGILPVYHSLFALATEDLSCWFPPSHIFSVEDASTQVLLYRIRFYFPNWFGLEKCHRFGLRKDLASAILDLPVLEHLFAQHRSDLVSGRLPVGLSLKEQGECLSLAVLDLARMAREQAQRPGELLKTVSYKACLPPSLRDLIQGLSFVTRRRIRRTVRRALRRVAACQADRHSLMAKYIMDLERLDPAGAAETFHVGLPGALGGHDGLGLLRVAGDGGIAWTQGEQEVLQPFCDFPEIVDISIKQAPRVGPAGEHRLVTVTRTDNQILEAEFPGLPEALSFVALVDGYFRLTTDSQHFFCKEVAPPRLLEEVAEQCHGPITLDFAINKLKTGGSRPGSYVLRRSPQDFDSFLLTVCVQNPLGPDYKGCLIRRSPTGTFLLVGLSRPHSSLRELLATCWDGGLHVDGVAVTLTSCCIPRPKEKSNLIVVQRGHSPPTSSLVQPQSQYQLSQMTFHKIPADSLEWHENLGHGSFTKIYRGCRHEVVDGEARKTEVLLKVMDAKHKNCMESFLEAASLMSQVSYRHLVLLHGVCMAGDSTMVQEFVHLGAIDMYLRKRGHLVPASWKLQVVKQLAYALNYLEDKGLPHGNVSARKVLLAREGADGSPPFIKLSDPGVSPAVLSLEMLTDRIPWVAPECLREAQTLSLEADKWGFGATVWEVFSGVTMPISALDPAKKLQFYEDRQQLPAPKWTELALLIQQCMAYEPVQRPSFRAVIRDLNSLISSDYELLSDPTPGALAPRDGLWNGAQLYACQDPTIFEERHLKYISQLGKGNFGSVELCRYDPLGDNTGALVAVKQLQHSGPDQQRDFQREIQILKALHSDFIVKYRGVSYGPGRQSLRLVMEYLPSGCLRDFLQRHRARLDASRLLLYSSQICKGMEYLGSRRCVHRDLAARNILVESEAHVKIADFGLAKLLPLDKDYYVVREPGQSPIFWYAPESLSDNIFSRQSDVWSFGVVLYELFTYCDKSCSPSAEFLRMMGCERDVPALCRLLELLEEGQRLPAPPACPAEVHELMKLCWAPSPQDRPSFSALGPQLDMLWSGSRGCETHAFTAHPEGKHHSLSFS
Nature of the assay: Kinase inhibition. It counts as biochemical.

Assay [11] deals with Ba/F3 KIF5B-RET G810S. The assay is described as follows: Cell viability CellTiter-Glo 2.0. It counts as cell-based. The conditions noted are these: Mus musculus, read-out: GI50 values. Background: In ATP-based viability assays light output follows the ATP content of the culture.
For assay [12], the system named is Ba/F3 KIF5B-RET^G810R cells. Nature of the assay: Ba/F3 KIF5B-RET G810R subcutaneous tumor model, second study. It counts as in vivo, mouse. The settings on record: for tumor regrowth: 30 mg/kg bid, day 15.
Setting [13] is: read-out: IC50 kinase inhibition, PDGFRα.
[14] abbreviates: read-out: IC50 kinase inhibition, PDGFRβ.
Setting [15] is: read-out: IC50 kinase inhibition, FGFR1.
[16] abbreviates: read-out: IC50 kinase inhibition, FGFR2.
[17] abbreviates: read-out: IC50 kinase inhibition, FGFR3.
[18] abbreviates: read-out: IC50 kinase inhibition, DDR1.
Setting [19] is: read-out: IC50 kinase inhibition, DDR2.
The mark [20] stands for this setting: read-out: IC50 kinase inhibition, JAK1.
[21] abbreviates: read-out: IC50 kinase inhibition, JAK2.
Where [22] appears, read: read-out: IC50 kinase inhibition, JAK3.

Where two headings read alike, the source gives them in different places.

Sequence of DDR1 (Q08345 19-913): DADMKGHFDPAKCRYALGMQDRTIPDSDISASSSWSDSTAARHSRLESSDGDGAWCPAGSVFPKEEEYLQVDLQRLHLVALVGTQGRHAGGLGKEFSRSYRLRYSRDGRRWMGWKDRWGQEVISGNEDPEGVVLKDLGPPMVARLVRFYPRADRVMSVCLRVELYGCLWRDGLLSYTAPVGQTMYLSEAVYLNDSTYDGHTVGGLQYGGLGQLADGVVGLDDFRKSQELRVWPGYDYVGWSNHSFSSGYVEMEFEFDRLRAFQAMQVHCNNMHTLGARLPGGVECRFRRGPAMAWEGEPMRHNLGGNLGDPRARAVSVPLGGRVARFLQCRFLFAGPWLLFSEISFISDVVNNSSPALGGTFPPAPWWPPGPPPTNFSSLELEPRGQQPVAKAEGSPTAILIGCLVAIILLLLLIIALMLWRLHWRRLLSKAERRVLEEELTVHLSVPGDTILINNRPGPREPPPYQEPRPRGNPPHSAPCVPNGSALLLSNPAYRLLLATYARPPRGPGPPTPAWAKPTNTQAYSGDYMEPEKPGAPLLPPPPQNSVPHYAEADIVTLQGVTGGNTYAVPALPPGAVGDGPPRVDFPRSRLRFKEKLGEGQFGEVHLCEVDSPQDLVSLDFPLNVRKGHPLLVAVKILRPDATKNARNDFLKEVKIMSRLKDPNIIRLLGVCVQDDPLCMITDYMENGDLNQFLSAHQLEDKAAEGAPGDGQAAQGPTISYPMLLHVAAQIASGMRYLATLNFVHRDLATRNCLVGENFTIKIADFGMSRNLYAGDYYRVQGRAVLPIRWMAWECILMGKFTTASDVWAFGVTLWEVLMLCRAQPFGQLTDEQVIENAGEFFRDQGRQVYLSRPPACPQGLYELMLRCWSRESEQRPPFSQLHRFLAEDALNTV
Sequence of JAK1 (P23458 whole entry): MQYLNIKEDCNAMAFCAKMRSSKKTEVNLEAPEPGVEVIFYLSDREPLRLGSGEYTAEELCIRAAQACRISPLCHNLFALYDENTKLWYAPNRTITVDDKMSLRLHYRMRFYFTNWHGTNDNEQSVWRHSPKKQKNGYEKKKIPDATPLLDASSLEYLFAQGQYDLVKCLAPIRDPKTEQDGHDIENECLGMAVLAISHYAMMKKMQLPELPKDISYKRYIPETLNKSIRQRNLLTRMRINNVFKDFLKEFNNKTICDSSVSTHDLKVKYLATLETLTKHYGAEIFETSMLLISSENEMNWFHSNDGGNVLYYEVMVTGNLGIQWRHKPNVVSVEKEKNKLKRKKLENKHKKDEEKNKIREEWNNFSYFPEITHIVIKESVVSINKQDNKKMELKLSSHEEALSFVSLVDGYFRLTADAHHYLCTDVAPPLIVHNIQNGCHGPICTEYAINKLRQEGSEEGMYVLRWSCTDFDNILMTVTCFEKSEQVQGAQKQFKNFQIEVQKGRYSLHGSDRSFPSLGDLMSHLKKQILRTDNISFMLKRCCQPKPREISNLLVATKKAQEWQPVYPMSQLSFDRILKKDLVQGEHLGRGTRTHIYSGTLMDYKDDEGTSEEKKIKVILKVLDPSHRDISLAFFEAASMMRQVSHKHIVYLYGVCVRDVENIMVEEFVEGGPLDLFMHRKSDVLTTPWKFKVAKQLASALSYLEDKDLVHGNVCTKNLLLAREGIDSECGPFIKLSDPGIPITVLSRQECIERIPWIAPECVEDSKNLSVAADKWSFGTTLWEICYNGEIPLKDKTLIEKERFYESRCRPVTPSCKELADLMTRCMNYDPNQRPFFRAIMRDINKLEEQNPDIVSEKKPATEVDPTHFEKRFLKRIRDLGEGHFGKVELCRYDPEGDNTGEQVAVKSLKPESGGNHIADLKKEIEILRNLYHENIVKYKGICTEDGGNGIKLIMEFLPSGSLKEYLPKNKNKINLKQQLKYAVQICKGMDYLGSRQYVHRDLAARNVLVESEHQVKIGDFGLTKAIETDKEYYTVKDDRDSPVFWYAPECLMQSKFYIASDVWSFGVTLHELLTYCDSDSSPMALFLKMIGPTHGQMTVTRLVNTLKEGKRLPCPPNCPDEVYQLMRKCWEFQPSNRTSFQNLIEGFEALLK
Sequence of FGFR1 (P11362 22-822): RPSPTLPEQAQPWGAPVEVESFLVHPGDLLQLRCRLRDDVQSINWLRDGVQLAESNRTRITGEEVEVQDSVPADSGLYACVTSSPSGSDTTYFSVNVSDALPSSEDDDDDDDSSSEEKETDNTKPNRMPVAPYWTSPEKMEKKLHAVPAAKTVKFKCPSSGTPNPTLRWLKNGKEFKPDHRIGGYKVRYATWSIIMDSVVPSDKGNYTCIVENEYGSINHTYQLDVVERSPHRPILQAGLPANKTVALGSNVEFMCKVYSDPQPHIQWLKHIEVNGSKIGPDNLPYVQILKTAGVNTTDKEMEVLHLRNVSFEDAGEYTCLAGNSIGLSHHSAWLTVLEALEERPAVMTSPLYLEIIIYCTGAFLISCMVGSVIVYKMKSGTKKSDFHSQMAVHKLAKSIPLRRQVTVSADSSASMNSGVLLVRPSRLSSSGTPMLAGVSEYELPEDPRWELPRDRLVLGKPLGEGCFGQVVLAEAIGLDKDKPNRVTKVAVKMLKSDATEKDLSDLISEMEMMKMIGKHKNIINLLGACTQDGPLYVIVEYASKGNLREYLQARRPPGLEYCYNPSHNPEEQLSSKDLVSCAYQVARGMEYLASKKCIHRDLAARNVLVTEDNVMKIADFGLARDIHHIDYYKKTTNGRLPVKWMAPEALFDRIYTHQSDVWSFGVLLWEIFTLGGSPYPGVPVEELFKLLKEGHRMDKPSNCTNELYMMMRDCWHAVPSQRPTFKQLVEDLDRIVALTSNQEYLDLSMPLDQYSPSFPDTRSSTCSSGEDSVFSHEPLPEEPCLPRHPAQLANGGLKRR
Sequence of FGFR3 (P22607 23-806): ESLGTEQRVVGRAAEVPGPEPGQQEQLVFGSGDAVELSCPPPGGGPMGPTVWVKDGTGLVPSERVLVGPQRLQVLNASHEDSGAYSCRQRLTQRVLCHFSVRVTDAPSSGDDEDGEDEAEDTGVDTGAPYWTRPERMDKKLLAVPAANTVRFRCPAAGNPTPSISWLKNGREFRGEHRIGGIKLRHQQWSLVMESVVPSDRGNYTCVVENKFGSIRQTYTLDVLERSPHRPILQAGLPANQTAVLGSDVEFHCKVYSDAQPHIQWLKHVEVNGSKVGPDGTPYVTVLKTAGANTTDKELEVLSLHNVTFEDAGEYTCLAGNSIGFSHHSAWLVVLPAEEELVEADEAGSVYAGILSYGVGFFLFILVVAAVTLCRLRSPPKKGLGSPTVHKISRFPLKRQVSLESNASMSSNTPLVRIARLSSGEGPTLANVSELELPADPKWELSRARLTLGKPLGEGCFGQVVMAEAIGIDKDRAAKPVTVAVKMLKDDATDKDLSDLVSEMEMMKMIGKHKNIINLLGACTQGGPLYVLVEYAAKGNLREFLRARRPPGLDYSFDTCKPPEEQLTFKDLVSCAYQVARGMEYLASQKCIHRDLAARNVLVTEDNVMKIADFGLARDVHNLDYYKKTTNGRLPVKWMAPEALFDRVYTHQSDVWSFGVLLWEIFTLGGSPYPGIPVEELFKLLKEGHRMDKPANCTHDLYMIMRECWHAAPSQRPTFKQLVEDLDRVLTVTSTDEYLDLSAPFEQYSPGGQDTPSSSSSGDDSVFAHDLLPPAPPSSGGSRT
Sequence of FGFR2 (P21802 22-821): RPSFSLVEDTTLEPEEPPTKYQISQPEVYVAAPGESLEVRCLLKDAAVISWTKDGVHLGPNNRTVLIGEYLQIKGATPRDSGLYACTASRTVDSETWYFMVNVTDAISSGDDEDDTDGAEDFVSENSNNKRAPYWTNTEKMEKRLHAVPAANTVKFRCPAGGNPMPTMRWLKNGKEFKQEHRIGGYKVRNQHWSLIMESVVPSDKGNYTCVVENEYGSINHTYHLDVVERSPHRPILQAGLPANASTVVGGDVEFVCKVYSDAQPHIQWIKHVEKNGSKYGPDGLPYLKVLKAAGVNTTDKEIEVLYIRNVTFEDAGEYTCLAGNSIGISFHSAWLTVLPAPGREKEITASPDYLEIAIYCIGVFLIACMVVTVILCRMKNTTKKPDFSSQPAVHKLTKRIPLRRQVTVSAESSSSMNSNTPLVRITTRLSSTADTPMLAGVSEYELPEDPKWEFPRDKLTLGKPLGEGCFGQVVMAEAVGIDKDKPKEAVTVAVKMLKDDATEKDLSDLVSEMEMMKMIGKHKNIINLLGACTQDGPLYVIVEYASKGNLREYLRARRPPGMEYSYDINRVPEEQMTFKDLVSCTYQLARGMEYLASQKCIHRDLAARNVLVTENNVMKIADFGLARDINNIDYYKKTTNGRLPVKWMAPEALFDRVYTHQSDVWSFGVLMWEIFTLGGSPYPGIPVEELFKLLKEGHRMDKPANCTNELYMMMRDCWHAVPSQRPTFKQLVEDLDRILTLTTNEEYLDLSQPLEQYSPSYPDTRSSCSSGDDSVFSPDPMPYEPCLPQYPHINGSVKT

`CO[C@]1(C(=O)N[C@@H](C)c2ccc(-n3cc(F)cn3)nc2)CC[C@H](c2nc(C)cc(Nc3cc(C)[nH]n3)n2)CC1` [BLU-667, pralsetinib]: the IC50 (usually the concentration that inhibits the measured activity by half) in assay [1] (setting [13]) was 12 nM; in assay [2] (setting [14]), 7.7 nM; in assay [3] (setting [15]), 15 nM; in [4] (setting [16]) it was 35 nM; in assay [5] (setting [17]), 58 nM; in assay [6] (setting [18]), 7.1 nM. Also, the IC50 turned out to be 7.7 nM in assay [7] (setting [19]), 2.6 nM in [8] (setting [20]), 1.1 nM in [9] (setting [21]) and 6.1 nM in [10] (setting [22]). The GI50 (commonly the concentration that inhibits growth by half) in assay [11] (BaF3, Ba/F3 KIF5B-RET G810S, 72 hours, mean±SD of three experiments) was 50.6 ± 31.4 nM. In [12], the tumor regrowth result was “trend to tumor regrowth at day 15”.

Consider `COc1ccc(CN2C3CC2CN(c2ccc(-c4cc(OCC(C)(C)O)cn5ncc(C#N)c45)cn2)C3)cn1` [LOXO-292, selpercatinib], for which the IC50 came out at 44 nM in [1] (setting [13]); 67 nM in assay [2] (setting [14]); 64 nM in assay [3] (setting [15]); 34 nM in assay [4] (setting [16]); 51 nM in assay [5] (setting [17]); 103 nM in assay [6] (setting [18]). The IC50 in [7] (setting [19]) was 417 nM; in assay [8] (setting [20]), greater than 3000 nM; in [9] (setting [21]), greater than 3000 nM; in assay [10] (setting [22]) it was 2840 nM. The GI50 in assay [11] (BaF3, 72 h) came out at 166 ± 20 nM. Further, the tumor regrowth entry in [12] is reported as “trend to tumor regrowth at day 15”.

As to `COCc1ccc(NC(=O)c2c(C#CCN3CCOCC3)n(C3(C)CC3)c3ncnc(N)c23)cc1` [HM06/TAS0953, 4-amino-N-(4-(methoxymethyl)phenyl)-7-(1-methylcyclopropyl)-6-(3-morpholinoprop-1-yn-1-yl)-7H-pyrrolo[2,3-d]pyrimidine-5-carboxamide], the IC50 was found to be 735 nM in assay [1]; 2760 nM in assay [2]; 2720 nM in assay [3]; 1850 nM in [4]; 2150 nM in assay [5]; 1190 nM in assay [6]. The concentration for half-maximal inhibition (IC50) in [7], in assay [8], in [9] and in assay [10] was greater than 3000 nM in each case. Besides, the GI50 in assay [11] (BaF3, 72 h) came out at 11.9 ± 3.6 nM. Moreover, the “mean tumor volume on day 15 vs LOXO-292 and BLU-667 30 mg/kg bid” value in assay [12] (50 mg/kg bid) was “significantly lower in the HM06/TAS0953 group than in the LOXO-292 and BLU-667 groups”. Also, in [12] (50 mg/kg bid), the tumor regression result is “consistent tumor regression”.

Values taken from patent publication US20240000791A1, “Methods of Using 4-Amino-N-[4-(Methoxymethyl)Phenyl]-7-(1-Methylcyclopropyl)-6-(3-Morpholinoprop-1-YN-1-YL)-7H-Pyrrolo[2,3-D]Pyrimidine-5-Carboxamide for the Treatment of Tumors” (Helsinn Healthcare SA, priority 2020, published 2024).
